Data published in patent publication US7767240B2, “Microbiological control in poultry processing” (priority 2001, dated 2010).

How the values were obtained:
[1] = system: biofilm-associated HPC (heterotrophic plate count) bacteria; experiment: HPC bacteria eradication in biofilm, PVC sampling pipes; format: cell-based
Description: In another group of tests, the results of which are depicted in FIGS. 5 through 10, several bromine-based microbiocides of this invention were utilized in tests illustrating their effectiveness in eradicating or controlling Heterotrophic Plate Count bacteria i.e., a mixture of naturally-occurring pathogenic bacteria of various unidentified species. These bacteria were challenged both in the form of biofilms and in planktonic form.
The experimental conditions utilized in these tests involved use of an apparatus consisting of three parallel transparent PVC sampling pipes. These pipes were used for collection of biofilm (i.e., sessile or surface attached) bacteria samples; one as control pipe, one for a relatively low biocide concentration and the third for a higher biocide concentration. The biocide challenge in each case was divided into three phases. First was a 14-day inoculation. Next was a 48-hour disinfection period. Finally a 2-week recovery period was provided. The biocide under test was slug-dosed and during the first hour of exposure, the concentration was adjusted to achieve the desired concentration level.
The source of the naturally-grown heterotrophic plate count (HPC) bacteria was sediment and associated water collected from the recirculating hot water system of a hospital. […]

[2] = system: S. sonnei, L. monocytogenes, E. coli, S. enteritidis, P. aeruginosa, C. jejuni; experiment: Mean % reduction from control over the six organisms (Example 3); format: cell-based; details: pH 8
Experimental: This group of tests was conducted to determine the effect of Clorox® bleach, Aquatize® biocide, and 1,3-dibromo-5,5-dimethylhydantoin (DBDMH) on carcass bacteria (Escherichia coli field strain) residual after 1,5-hour in a chill tank “soup”. Tests were conducted with soups at pH 7, pH 8 and pH 9 (adjusted by trisodium phosphate) for whole bird bacteria counts. Tests at pH 8 were conducted for individual bacteria counts.
In general the tests involved normal processing of 56-day-old birds and immersing the carcasses first in a warm bath containing 10^4 per mL Escherichia coli, 10^4 per mL Salmonella enteritidis, 10^4 per mL Pseudomonas aeruginosa, 10^4 per mL Campylobacter jejuni, and 10^4 per mL spoilage bacteria each from […] strains (Listeria monocytogenes and Shigella sonnei). The carcasses were then immersed in a chill tank “soup”, containing normal organic fluids (blood, fat, skin, and meat particles) and containing the microbiocides on the test.
The procedure used for whole bird wash sampling was as follows: • 1. All samples were kept at ≦50 degrees Fahrenheit following collection. • 2. Microbiological analyses of samples began within 24 hours of sample collection. • 3. Information on the individual sample identification, date of collection, time of collection (phase during shift), treatment group and location of sample point were recorded on each sample bottle. • 4. […]

CC1(C)C(=O)N(Br)C(=O)N1Br [DBDMH, 1,3-dibromo-5,5-dimethylhydantoin]
biofilm-associated HPC bacteria eradicated ([1]; 0.5 ppm as bromine, within three hours): over 99% | biofilm-associated HPC bacteria eradicated ([1]; 5 ppm as bromine, within twelve hours): ~99.9% | Mean % Reduction From Control ([2]; 10 ppm): 85.8% | Mean % Reduction From Control ([2]; 20 ppm): 98.8%
